Assay results as given in PMC4516231 (Journal of pharmaceutical sciences, 2012).
Converted amounts (≈) assume the structure as drawn.

Assays:
[1] = Aqueous solubility in distilled–deionized water; format: physicochemical; conditions: for Reduction in solubility: DDW, relative to CDF; for Reduction in solubility / Solubility in DDW: 37°C; for Solubility in DDW: distilled–deionized water, 24 h
[2] = Tissue; format: in vitro ADME, rabbit; conditions: relative to parent CDF

Structure (SMILES) | Reduction in solubility [1] | Solubility in DDW [1] [mg/mL] | solubility at 24 h ([1]; distilled-deionized water) [mg/mL] | Fold Increase in retina–choroid partition coefficient [2] [fold]
CCCCCCOP1(=O)COC(Cn2ccc(N)nc2=O)CO1 (stereo not drawn) [C6-cCDF, C6-cyclic Cidofovir] | about 56 fold | 1.27 ± 0.48 (≈ 3.68 mM) |  | 
CCCCCCCCCCCCOP1(=O)CO[C@@H](Cn2ccc(N)nc2=O)CO1 (stereo partly drawn) [C12-cCDF, C12-cyclic Cidofovir] | ~74 fold | 0.95 ± 0.37 (≈ 2.21 mM) |  | 
Nc1ccn(C[C@@H](CO)OCP(=O)(O)O)c(=O)n1 [CDF, Cidofovir, reference compound] |  |  | 72.4 ± 3.33 (≈ 259 mM) | 1
